Laboratory results: patent publication US20210352905A1, “COMPOSITIONS AND METHODS TO DISINFECT, TREAT AND PREVENT MICROBIAL INFECTIONS” (WIAB WATER INNOVATION AB, priority 2020, published 2021)

Legend:
S. aureus biofilms = details: 1% acetic acid alone, FIG. 2
pre-formed biofilm = details: Halstead et al, PLOS ONE (2015); cited from earlier work
avian influenza virus = details: similar formulations, in vitro; cited from earlier work
[1] = cited from earlier work
human rhinovirus (HRV) = details: low concentration hypochlorous acid nasal irrigation solution, in vitro, nasal epithelial cells; cited from earlier work

CC(=O)O [acetic acid]
effect on the biofilm (S. aureus biofilms): only minor effect | concentrations of acetic acid that eradicated a pre-formed biofilm (pre-formed biofilm): 0.10% to 2.5

OCl [hypochlorous acid]
effects against avian influenza virus (avian influenza virus): good effects | pKa [1]: about 7 | virus-killing effect (human rhinovirus (HRV)): significant virus-killing effect
